Laboratory results: PubChem BioAssay (NCI)
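Test compounds were applied to cells in 96-well plates for 48 hours at 5 doses. TGI is the concentration that stops growth completely.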

Key:
Assay in all cases: growth of human tumour cells (NCI), 48 h
HCC-2998 colon = system: HCC-2998 colon
MOLT-4 leukemia = system: MOLT-4 leukemia
SK-MEL-5 melanoma = system: SK-MEL-5 melanoma
NCI-H522 lung = system: NCI-H522 lung
MDA-MB-435 = system: MDA-MB-435
SK-OV-3 ovarian = system: SK-OV-3 ovarian
UO-31 renal = system: UO-31 renal
PC-3 prostate = system: PC-3 prostate
SF-539 CNS = system: SF-539 CNS
SK-MEL-2 melanoma = system: SK-MEL-2 melanoma
SNB-19 CNS = system: SNB-19 CNS
MCF7 breast = system: MCF7 breast
HL-60(TB) leukemia = system: HL-60(TB) leukemia
BT-549 breast = system: BT-549 breast
K-562 leukemia = system: K-562 leukemia
LOX IMVI melanoma = system: LOX IMVI melanoma
OVCAR-3 ovarian = system: OVCAR-3 ovarian
MDA-N = system: MDA-N
M14 melanoma = system: M14 melanoma
CCRF-CEM leukemia = system: CCRF-CEM leukemia
786-0 renal = system: 786-0 renal
SN12C renal = system: SN12C renal
NCI/ADR-RES ovarian = system: NCI/ADR-RES ovarian
T-47D breast = system: T-47D breast
HS 578T breast = system: HS 578T breast
UACC-257 melanoma = system: UACC-257 melanoma
NCI-H23 lung = system: NCI-H23 lung
DU-145 prostate = system: DU-145 prostate
SNB-75 CNS = system: SNB-75 CNS
RXF 393 renal = system: RXF 393 renal
ACHN renal = system: ACHN renal
A498 renal = system: A498 renal
SK-MEL-28 melanoma = system: SK-MEL-28 melanoma
TK-10 renal = system: TK-10 renal
COLO 205 colon = system: COLO 205 colon
EKVX NSCLC = system: EKVX NSCLC
RPMI-8226 leukemia = system: RPMI-8226 leukemia
OVCAR-5 ovarian = system: OVCAR-5 ovarian
HCT-116 colon = system: HCT-116 colon
UACC-62 melanoma = system: UACC-62 melanoma
HOP-62 NSCLC = system: HOP-62 NSCLC
U251 CNS = system: U251 CNS
HT29 colon = system: HT29 colon
SR leukemia = system: SR leukemia
IGROV1 ovarian = system: IGROV1 ovarian
MDA-MB-231 breast = system: MDA-MB-231 breast
NCI-H226 lung = system: NCI-H226 lung
A549 NSCLC = system: A549 NSCLC
SF-295 CNS = system: SF-295 CNS
KM12 colon = system: KM12 colon
NCI-H460 lung = system: NCI-H460 lung
OVCAR-8 ovarian = system: OVCAR-8 ovarian
SW-620 colon = system: SW-620 colon
MALME-3M melanoma = system: MALME-3M melanoma
OVCAR-4 ovarian = system: OVCAR-4 ovarian
SF-268 CNS = system: SF-268 CNS
HCT-15 colon = system: HCT-15 colon
CAKI-1 renal = system: CAKI-1 renal
HOP-92 NSCLC = system: HOP-92 NSCLC

Measured: TGI

COc1ccc(/C=C/NC=O)cc1
not listed: CAKI-1 renal | HOP-92 NSCLC
> 100 µM: all other assays above

Cn1c(=O)c2c(nc(Nc3ccc(Cl)cc3)n3c(=O)n(-c4ccccc4)c(=O)n23)n(C)c1=O
not listed: SK-OV-3 ovarian | MALME-3M melanoma
> 100 µM: all other assays above
